Experimental data reported in US5886007A (priority 1997, dated 1999).
Read-outs that look alike come from different tables or passages of the source.

Assays:
rat brain AChE = molecular target: T1, rat brain AChE (Rattus norvegicus, UniProt P37136); assay: biochemical
T1 construct: Rat brain homogenate prepared in 10 ml/g 10 mM Tris, pH 7.4, plus 1% Triton X-100 was used as a source of AChE; from tissue; host or cells: rat brain homogenate (10 mM Tris, pH 7.4, 1% Triton X-100)

rat serum BChE = molecular target: T2, rat serum BChE (Rattus norvegicus, UniProt Q9JKC1); assay: biochemical
T2 construct: rat serum was the source of BChE; from tissue; host or cells: rat serum
T2 sequence (Q9JKC1 24-597): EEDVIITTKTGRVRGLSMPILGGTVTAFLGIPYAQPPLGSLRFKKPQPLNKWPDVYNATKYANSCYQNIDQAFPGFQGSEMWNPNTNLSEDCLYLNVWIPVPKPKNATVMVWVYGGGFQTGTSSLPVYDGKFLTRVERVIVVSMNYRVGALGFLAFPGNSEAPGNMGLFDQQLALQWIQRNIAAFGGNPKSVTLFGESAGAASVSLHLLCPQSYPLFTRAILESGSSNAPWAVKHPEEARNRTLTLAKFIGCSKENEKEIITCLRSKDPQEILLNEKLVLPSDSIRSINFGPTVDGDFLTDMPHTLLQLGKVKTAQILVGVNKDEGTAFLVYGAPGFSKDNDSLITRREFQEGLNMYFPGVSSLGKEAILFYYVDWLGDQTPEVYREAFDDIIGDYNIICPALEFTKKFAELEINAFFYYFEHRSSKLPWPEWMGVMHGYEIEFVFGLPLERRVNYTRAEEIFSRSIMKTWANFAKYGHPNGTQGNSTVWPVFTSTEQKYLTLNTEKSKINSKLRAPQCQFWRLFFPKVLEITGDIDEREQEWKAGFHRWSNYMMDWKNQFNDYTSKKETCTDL

[1] = current use of THA limited; cited from earlier work

T1 sequence (P37136 32-614): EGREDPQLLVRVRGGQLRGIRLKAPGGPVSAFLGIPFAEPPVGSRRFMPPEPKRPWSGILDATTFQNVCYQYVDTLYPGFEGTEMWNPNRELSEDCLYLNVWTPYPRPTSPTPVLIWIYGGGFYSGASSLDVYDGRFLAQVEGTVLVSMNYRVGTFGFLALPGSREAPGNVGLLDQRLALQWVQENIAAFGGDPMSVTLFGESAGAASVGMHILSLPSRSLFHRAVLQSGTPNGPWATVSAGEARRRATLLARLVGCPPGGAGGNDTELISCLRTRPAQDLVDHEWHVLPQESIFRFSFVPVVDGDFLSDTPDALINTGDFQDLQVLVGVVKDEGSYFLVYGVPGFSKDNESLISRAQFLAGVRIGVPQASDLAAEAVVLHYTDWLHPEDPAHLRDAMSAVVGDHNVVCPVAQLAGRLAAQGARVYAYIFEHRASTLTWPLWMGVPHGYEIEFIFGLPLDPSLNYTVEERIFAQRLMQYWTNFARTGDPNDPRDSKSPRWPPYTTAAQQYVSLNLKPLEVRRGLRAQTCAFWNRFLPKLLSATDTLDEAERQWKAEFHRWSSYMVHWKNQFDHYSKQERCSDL

SMILES	IC50 (rat brain AChE)	Selectivity (rat brain AChE)	IC50 (rat serum BChE)	further results
c1ccc(CCCCCCCCNc2c3c(nc4ccccc24)CCCC3)cc1 [2e, (8-Phenyl-octyl)-(1,2,3,4-tetrahydro-acridine-9-yl)-amine]	220 nM	9.1	2000 nM	potency of 2e and THA relative to compound 1a against rat brain AChE (rat brain AChE): weaker; potency ranking within class / chain length dependence of AChE inhibition (rat brain AChE): the most potent; relative potency of 2e and THA against rat brain AChE (rat brain AChE): nearly equipotent
c1ccc(CCCCCCCCCCNc2c3c(nc4ccccc24)CCCC3)cc1 [2g, (10-Phenyl-decyl)-(1,2,3,4-tetrahydro-acridine-9-yl)-amine]	3000 nM	–	–	–
c1ccc2c(NCCCCCCCCNc3c4c(nc5ccccc35)CCCC4)c3c(nc2c1)CCCC3 [1b, 1-8-n-Octylene-bis-9,9'-amino-1,2,3,4-tetrahydroacridine]	0.5 nM	432.0	216 nM	–
c1ccc(CCCCNc2c3c(nc4ccccc24)CCCC3)cc1 [2a, (4-Phenyl-butyl)-(1,2,3,4-tetrahydro-acridine-9-yl)-amine]	1500 nM	–	–	–
c1ccc2c(NCCCCCCCCCCNc3c4c(nc5ccccc35)CCCC4)c3c(nc2c1)CCCC3 [1d, 1-10-n-Decylene-bis-9,9'-amino-1,2,3,4-tetrahydroacridine]	2 nM	180.0	360 nM	–
c1ccc(CCCCCCCCCNc2c3c(nc4ccccc24)CCCC3)cc1 [2f, (9-Phenyl-nonyl)-(1,2,3,4-tetrahydro-acridine-9-yl)-amine]	3000 nM	3.3	10000 nM	–
c1ccc(CCCCCCCNc2c3c(nc4ccccc24)CCCC3)cc1 [2d, (7-Phenyl-heptyl)-(1,2,3,4-tetrahydro-acridine-9-yl)-amine]	360 nM	2.8	–	IC50 (rat serum BChE; read-out: IC50 rat serum BChE): 1000 nM
c1ccc2c(NCCCCCCCNc3c4c(nc5ccccc35)CCCC4)c3c(nc2c1)CCCC3 [1a, 1-7-n-Heptylene-bis-9,9'-amino-1,2,3,4-tetrahydroacridine]	–	–	–	times more potent than THA in inhibiting rat brain AChE (rat brain AChE): 1000 times
c1ccc(CCCCCNc2c3c(nc4ccccc24)CCCC3)cc1 [2b, (5-Phenyl-pentyl)-(1,2,3,4-tetrahydro-acridine-9-yl)-amine]	–	0.3	500 nM	IC50 (rat brain AChE; pH 7.4, read-out: IC50 rat brain AChE): 1500 nM
Nc1c2c(nc3ccccc13)CCCC2 [THA, 9-amino-1,2,3,4-tetrahydroacridine]	–	–	–	hepatoxicity [1]: serious hepatoxicity
c1ccc(CCCCCCNc2c3c(nc4ccccc24)CCCC3)cc1 [2c, (6-Phenyl-hexyl)-(1,2,3,4-tetrahydro-acridine-9-yl)-amine]	520 nM	1.5	800 nM	–
